Source: patent US9024071B2, “Therapeutic compounds” (University of Florida Research Foundation, Inc., priority 2009, dated 2015)
“Also recorded” adds a separate entry of the source.

Columns and labels:
5HT2C [1] = biological target: T1, 5HT2C (Homo sapiens, UniProt P28335); test: Radioreceptor competition/saturation binding, 5HT2C ([3H]-mesulergine); settings: competitive binding; for nH: Hill slope; for Ki: wild type receptor transiently expressed (FIG. 1: HEK 293 cells)
T1 sequence (P28335 33-458): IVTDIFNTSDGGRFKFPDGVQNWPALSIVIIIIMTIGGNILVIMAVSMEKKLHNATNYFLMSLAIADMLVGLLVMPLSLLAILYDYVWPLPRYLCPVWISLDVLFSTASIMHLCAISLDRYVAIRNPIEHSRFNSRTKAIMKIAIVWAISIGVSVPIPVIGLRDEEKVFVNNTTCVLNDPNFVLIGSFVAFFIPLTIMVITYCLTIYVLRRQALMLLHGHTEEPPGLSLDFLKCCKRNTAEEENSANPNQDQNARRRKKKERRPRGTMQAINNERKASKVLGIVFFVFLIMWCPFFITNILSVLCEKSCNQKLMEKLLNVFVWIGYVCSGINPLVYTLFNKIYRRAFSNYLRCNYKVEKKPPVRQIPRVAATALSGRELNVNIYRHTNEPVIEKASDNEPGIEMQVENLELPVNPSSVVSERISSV
Experimental: (§1) Cells are grown at 37° C. in a humidified incubator with 5% CO2. The cDNAs encoding the human 5-HT2A, 5-HT2B, and 5-HT2C receptors (wild type) are purchased from UMR (Rolla, Mo.) for transient transfection of the clonal cells. For radioreceptor binding assays, 5-HT2A, 5-HT2B, and 5-HT2C receptor membranes are prepared from transfected CHO-K1 cells. For functional assays measuring activity of PLC/IP formation, transfected CHO-K1 cells are used for 5-HT2A and 5-HT2C receptors. […] Twenty-four hours before transfection, cells are seeded at 40% confluence in 100 mm dishes for radioreceptor binding assays or at 10^5 cells per well in 12-well plates for functional assays. CHO-K1 cells are transiently transfected with 12 μg of plasmid and 32 μl of lipofectamine (Invitrogen) per 100 mm dish for radioreceptor binding assays, or, 0.8 μg plasmid and 4.0 μl of lipofectamine per well for functional assays. For 5-HT2B functional assays using HEK cells, 24 μg plasmid DNA is mixed with 60 μl of Lipofectamine 2000 (Invitrogen) to transfect 1-2×10^6 cells in a 10-cm plate. Cells are allowed to express transfected receptors for another 24 hrs (Herrick, 1997).
(§2) Radioreceptor saturation and competition binding assays are performed using membrane homogenates, similar to our methods reported previously for the phylogenetically closely related histamine H1 GPCR (Booth, 2002; Moniri et al., 2004). […] Briefly, forty-eight hours following CHO cell transfection, cells are harvested and homogenized in 50 mM Tris-HCl containing 0.1% ascorbic acid and 4.0 mM CaCl2 at pH 7.4 (assay buffer). The homogenate is centrifuged at 35,000 g for 25 min and the resulting membrane pellet is re-suspended in assay buffer. Protein concentration is determined by the method of Lowry et al. (Lowry, 1951). […] Incubation of radioreceptor binding assay mixtures is for 1.0 h at 37° C., with termination by rapid filtration through Whatman GF/B filters using a 96-well cell harvester (Tomtec, Hamden, Conn.). The membrane-bound [^3H]-radioligand retained on the filter discs is quantified by liquid scintillation spectrometry. Data are analyzed by nonlinear regression using the sigmoidal curve-fitting algorithms in Prism 4.03 (GraphPad Software Inc., San Diego, Calif.). Ligand affinity is expressed as an approximation of Ki values by conversion of the IC50 data to K0.5 values using the equation K0.5=IC50/1+L/KD, where L is the concentration of radioligand having affinity KD (Cheng, 1973).

5HT2A [2] = biological target: T2, 5HT2A (Homo sapiens, UniProt P28223); test: Radioreceptor competition/saturation binding, 5HT2A ([3H]-ketanserin); settings: competitive binding; for nH: Hill slope; for Ki: wild type receptor transiently expressed (FIG. 1: HEK 293 cells)
T2 sequence (P28223 whole entry): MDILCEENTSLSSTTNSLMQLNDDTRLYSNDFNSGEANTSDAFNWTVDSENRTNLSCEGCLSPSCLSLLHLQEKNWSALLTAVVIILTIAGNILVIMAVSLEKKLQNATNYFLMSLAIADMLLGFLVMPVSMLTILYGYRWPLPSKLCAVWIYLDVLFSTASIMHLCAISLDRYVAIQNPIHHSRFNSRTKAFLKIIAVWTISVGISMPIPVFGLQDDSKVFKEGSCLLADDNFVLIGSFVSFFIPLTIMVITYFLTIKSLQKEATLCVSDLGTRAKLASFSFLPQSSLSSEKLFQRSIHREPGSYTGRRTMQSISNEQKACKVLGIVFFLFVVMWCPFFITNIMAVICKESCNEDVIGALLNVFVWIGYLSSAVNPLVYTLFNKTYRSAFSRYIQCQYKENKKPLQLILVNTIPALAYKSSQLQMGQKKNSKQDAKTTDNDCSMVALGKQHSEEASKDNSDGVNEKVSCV
Experimental: as §1, §2

Histamine H1 WT = biological target: T3, Histamine H1 WT (Homo sapiens, UniProt P35367); test: Competitive binding, histamine H1 receptor; settings: Hill slope
T3 construct: expressed in transfected cells
T3 sequence (P35367 whole entry): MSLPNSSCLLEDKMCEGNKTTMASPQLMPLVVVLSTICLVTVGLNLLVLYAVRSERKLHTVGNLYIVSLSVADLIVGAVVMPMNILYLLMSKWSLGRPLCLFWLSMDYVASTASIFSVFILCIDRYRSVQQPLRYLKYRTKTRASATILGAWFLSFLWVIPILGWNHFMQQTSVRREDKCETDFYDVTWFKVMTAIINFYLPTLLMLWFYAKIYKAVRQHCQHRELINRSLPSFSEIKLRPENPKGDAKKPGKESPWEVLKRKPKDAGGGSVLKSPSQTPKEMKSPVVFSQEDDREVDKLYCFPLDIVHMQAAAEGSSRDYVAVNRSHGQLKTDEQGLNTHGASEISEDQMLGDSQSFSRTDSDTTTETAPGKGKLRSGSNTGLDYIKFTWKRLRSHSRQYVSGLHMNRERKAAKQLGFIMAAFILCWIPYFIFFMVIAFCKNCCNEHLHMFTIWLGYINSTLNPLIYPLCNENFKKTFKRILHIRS
Experimental: as §2

5HT2B [3] = biological target: T4, 5HT2B (Homo sapiens, UniProt P41595); test: Radioreceptor competition/saturation binding, 5HT2B ([3H]-mesulergine); settings: competitive binding; for nH: Hill slope; for Ki: wild type receptor transiently expressed (FIG. 1: HEK 293 cells)
T4 sequence (P41595 whole entry): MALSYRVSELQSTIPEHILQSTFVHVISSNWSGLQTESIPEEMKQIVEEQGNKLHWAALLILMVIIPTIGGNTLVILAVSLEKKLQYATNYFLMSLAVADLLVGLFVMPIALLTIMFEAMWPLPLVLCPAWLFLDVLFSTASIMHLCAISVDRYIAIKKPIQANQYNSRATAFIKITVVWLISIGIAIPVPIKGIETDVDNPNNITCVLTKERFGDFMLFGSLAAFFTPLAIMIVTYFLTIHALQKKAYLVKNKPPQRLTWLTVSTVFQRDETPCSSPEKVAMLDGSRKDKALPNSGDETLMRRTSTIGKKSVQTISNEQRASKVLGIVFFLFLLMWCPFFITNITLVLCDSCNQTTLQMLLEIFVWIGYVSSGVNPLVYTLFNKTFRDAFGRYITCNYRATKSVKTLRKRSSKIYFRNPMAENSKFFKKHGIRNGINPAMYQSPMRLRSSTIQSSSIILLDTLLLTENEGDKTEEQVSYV
Experimental: as §1, §2

RSK 4 = RSK 4 (Homo sapiens, UniProt Q9UK32); test: Kinase affinity panel (labeled tag binding), RSK 4; settings: at 1.0 uM CAT
Chain of RSK 4 (Q9UK32 whole entry): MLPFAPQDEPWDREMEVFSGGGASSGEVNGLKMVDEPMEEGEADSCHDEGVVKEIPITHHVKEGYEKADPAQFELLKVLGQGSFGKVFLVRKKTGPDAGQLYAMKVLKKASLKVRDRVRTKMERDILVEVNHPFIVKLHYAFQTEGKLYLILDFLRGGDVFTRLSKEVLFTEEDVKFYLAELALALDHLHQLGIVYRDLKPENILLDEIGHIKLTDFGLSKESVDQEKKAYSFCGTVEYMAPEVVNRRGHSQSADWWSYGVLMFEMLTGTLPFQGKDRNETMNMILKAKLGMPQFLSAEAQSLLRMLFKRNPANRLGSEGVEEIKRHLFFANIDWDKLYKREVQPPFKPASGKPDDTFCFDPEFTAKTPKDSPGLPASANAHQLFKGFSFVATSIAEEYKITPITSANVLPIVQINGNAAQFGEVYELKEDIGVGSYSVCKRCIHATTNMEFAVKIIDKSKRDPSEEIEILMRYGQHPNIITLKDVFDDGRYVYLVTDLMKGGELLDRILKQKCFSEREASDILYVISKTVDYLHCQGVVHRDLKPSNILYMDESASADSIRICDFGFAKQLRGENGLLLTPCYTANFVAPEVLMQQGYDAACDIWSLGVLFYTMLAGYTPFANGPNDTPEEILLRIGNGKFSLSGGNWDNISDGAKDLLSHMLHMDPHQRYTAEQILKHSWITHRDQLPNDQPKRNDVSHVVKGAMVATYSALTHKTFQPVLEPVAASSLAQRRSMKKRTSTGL

RSK 1 = RSK 1 (Homo sapiens, UniProt Q15418); test: Kinase affinity panel (labeled tag binding), RSK 1; settings: at 1.0 uM CAT
Chain of RSK 1 (Q15418 whole entry): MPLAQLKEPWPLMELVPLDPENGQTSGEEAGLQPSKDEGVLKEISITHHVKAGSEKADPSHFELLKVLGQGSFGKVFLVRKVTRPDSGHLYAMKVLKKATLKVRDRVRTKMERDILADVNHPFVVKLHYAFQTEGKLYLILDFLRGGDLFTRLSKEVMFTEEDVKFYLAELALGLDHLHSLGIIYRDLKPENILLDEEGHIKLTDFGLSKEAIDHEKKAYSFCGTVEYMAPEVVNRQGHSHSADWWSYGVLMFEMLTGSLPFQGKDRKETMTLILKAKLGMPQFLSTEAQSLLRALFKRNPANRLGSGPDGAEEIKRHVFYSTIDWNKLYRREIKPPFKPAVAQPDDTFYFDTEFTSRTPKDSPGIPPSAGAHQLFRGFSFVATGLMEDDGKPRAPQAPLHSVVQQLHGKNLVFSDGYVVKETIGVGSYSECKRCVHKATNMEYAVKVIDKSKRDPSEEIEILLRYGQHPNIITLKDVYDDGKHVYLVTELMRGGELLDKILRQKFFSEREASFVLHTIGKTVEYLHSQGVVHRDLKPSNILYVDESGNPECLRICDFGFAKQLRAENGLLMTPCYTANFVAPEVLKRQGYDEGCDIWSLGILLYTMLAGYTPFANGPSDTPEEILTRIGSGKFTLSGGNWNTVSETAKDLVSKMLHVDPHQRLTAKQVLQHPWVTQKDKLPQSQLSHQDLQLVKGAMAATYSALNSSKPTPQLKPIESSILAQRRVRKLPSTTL

5HT2B [4] = biological target: T4, 5HT2B; test: PLC activity/[3H]-IP formation, 5HT2B; format: cell-based
Experimental: as §1

5HT2A [5] = biological target: T2, 5HT2A; test: PLC activity/[3H]-IP formation, 5HT2A; format: cell-based
Experimental: (§3) Cells are grown at 37° C. in a humidified incubator with 5% CO2. The cDNAs encoding the human 5-HT2A, 5-HT2B, and 5-HT2C receptors (wild type) are purchased from UMR (Rolla, Mo.) for transient transfection of the clonal cells. For radioreceptor binding assays, 5-HT2A, 5-HT2B, and 5-HT2C receptor membranes are prepared from transfected CHO-K1 cells. For functional assays measuring activity of PLC/IP formation, transfected CHO-K1 cells are used for 5-HT2A and 5-HT2C receptors. For 5HT2B receptors, however, more robust and consistent results for the PLC/IP assay are obtained using transfected HEK cells (Setola et al., 2005). Twenty-four hours before transfection, cells are seeded at 40% confluence in 100 mm dishes for radioreceptor binding assays or at 10^5 cells per well in 12-well plates for functional assays. CHO-K1 cells are transiently transfected with 12 μg of plasmid and 32 μl of lipofectamine (Invitrogen) per 100 mm dish for radioreceptor binding assays, or, 0.8 μg plasmid and 4.0 μl of lipofectamine per well for functional assays. For 5-HT2B functional assays using HEK cells, 24 μg plasmid DNA is mixed with 60 μl of Lipofectamine 2000 (Invitrogen) to transfect 1-2×10^6 cells in a 10-cm plate. Cells are allowed to express transfected receptors for another 24 hrs (Herrick, 1997).
(§4) Functional activation of PLC is measured as [^3H]-IP formation in CHO cells transiently expressing serotonin 5-HT2C receptors or HEK cells transiently expressing serotonin 5-HT2A or 5-HT2B receptors, as previously reported (Moniri et al., 2004). Briefly, thirty-two hours following transfection, cells in inositol-free Dulbecco's modified Eagle's medium (DMEM) are incubated for twelve hours with 1.0 μCi/ml myo-[2-^3H]-inositol, the radiolabeled precursor of the PLC-β substrate phosphatidylinositol. […]
(§5) Functional activation of PLC is measured as [^3H]-IP formation in CHO cells transiently expressing 5-HT2A or 5-HT2C receptors and HEK cells transiently expressing 5HT2B receptors, as previously reported by our lab (Booth, 2002; Moniri et al., 2004). […]

RSK 3 = RSK 3 (Homo sapiens, UniProt Q15349); test: Kinase affinity panel (labeled tag binding), RSK 3; settings: at 1.0 uM CAT
Chain of RSK 3 (Q15349 whole entry): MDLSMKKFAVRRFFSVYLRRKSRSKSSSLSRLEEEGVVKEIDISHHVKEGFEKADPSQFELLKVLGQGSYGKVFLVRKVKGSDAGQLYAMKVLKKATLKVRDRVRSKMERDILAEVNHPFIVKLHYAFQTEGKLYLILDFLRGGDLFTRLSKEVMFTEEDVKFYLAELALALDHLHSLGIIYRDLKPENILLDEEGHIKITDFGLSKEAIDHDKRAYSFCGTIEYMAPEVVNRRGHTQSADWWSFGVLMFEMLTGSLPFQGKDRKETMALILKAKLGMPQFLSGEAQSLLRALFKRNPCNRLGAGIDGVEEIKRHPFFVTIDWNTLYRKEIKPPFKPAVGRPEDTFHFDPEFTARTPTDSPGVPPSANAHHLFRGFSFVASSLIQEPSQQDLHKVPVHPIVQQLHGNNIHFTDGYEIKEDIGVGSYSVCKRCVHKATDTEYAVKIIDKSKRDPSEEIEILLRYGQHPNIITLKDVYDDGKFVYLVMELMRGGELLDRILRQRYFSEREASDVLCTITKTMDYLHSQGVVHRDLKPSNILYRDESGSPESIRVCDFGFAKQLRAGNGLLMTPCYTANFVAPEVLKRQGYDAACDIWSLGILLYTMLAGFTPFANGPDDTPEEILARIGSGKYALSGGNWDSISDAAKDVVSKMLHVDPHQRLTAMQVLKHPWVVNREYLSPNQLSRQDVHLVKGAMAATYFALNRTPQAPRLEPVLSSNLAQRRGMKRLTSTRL

438 other kinases = test: Kinase affinity panel (labeled tag binding), other kinases; settings: at concentrations up to 1.0 uM
5HT2C [6] = biological target: T1, 5HT2C; test: PLC activity/[3H]-IP formation, 5HT2C; format: cell-based
Experimental: as §3, §4, §5

Histamine H1 receptor = Histamine H1 receptor (Homo sapiens, UniProt P35367); test: Histamine H1 receptor-mediated stimulation of PLC activity/[3H]-IP formation; format: cell-based; settings: against histamine activation
Chain of Histamine H1 receptor (P35367 whole entry): as the sequence (P35367 whole entry) above

RSK 2 = RSK 2 (Homo sapiens, UniProt P51812); test: Kinase affinity panel (labeled tag binding), RSK 2; settings: at concentrations up to 1.0 uM
Chain of RSK 2 (P51812 whole entry): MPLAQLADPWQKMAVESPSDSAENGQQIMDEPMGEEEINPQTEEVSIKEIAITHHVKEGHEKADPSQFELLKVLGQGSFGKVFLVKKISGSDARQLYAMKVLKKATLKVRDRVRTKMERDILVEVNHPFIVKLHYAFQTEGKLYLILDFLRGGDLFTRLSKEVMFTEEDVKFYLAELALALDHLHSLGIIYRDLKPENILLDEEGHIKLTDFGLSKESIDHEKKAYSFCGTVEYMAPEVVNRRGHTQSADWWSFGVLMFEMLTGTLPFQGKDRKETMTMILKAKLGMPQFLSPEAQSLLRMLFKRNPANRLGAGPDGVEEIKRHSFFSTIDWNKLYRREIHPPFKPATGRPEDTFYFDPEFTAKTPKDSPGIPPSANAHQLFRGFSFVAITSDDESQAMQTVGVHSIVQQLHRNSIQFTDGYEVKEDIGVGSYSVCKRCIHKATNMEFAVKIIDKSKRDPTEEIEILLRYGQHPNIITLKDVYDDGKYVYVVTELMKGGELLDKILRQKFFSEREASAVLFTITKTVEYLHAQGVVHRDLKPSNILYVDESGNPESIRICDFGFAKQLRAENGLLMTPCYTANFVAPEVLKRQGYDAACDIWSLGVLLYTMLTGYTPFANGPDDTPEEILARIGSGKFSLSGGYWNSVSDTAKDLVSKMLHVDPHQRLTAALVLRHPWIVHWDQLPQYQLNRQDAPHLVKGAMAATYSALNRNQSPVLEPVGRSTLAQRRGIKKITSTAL

[7] = tested on: cocaine self-administration; settings: rat; cited from earlier work
5HT2C [8] = biological target: T1, 5HT2C; settings: cited from earlier work
[9] = inhibition of basal (constitutive) [3H]-IP formation

Compound	nH (5HT2C [1])	Ki (5HT2C [1]) [nM]	nH (5HT2A [2])	Ki (5HT2A [2]) [nM]	nH (Histamine H1 WT)	nH (5HT2B [3])	Ki (5HT2B [3]) [nM]	rate of cocaine self-administration [7]	also measured
CN(C)[C@H]1Cc2ccccc2[C@H](C2CCCCC2)C1 [(+)-trans-CAT, (+)-(2R,4S)-4-cyclohexyl-N,Ndimethyl-1,2,3,4-tetrahydronaphthalen-2-amine]	1.20 ± 0.26	28.9 ± 4.4	0.77 ± 0.20	78.2 ± 4	1.02 ± 0.00	0.75 ± 0.12	1010 ± 140		
CN(C)[C@@H]1Cc2ccccc2[C@@H](C2CCCCC2)C1 [(−)-trans-CAT, (−)-(2S,4R)-4-cyclohexyl-N,N-dimethyl-1,2,3,4-tetrahydronaphthalen-2-amine]	1.13 ± 0.18	13.7 ± 2.17	1.26 ± 0.01	1.61 ± 0.05	1.01 ± 0.05	0.81 ± 0.02	23.7 ± 0.79		inhibition of labeled tag binding (RSK 4): 80%; inhibition of tag binding (RSK 1): 20%; Kind of functional activity, PLC activity/IP formation (5HT2B [4]): inverse agonist; PLC/IP formation IMAX (5HT2B [4]): 56.80 ± 2.13 % Basal; IC50 (5HT2B [4]; [9]): 250 ± 30 nM; Kind of functional activity, PLC activity/IP formation (5HT2A [5]): inverse agonist; PLC/IP formation IMAX (5HT2A [5]): 48.45 ± 5.50 % Basal; IC50 (5HT2A [5]; [9]): 130 ± 20 nM; inhibition of labeled tag binding (RSK 3): 80%; binding to 438 other kinases (438 other kinases): did not exhibit as significant binding; Kind of functional activity, PLC activity/IP formation (5HT2C [6]): inverse agonist; PLC/IP formation IMAX (5HT2C [6]): 60.65 ± 2.94 % Basal; IC50 (5HT2C [6]; [9]): 190 ± 40 nM; PLC/IP formation, kind of activity at H1 (Histamine H1 receptor): competitively antagonized; also recorded: Competitive; binding to RSK 2 (RSK 2): did not exhibit similarly significant binding
COc1cccc([C@H](O)C2CCN(CCc3ccc(F)cc3)CC2)c1OC [M100907]								does not alter responding rate	
Cc1cc2c(cc1Cl)N(C(=O)Nc1ccc(Oc3cccnc3C)nc1)CC2 [SB242084]								increases the rate of cocaine self-administration dose-dependently	
C[C@H]1CNCCc2ccc(Cl)cc21 [lorcaserin, Lorcaserin]									selectivity for activation of 5HT2C receptors over 5HT2A receptors (5HT2C [8]): 15 fold
